Source: patent US8680012B2, “4-phenyl-pyrane-3,5-diones,4-phenyl-thiopyrane-3,6-diones and cyclohexanetriones as novel herbicides” (Syngenta Crop Protection LLC, priority 2006, dated 2014)

Tests used:
Assay type in all cases: in vivo
[1] = system: Alopecurus myosuroides (ALOMY); test: Example B pre-emergence herbicidal activity, glasshouse pot test; conditions: 312 h, rate 250 g/ha, evaluated after 13 days, read-out: Pre-emergence activity ALOMY (100=total damage to plant; 0=no damage to plant)
Protocol: (§1) Seeds of a variety of test species were sown in standard soil in pots. After cultivation for one day (pre-emergence) or after 8 days cultivation (post-emergence) under controlled conditions in a glasshouse (at 24/16° C., day/night; 14 hours light; 65% humidity), the plants were sprayed with an aqueous spray solution derived from the formulation of the technical active ingredient in acetone/water (50:50) solution containing 0.5% Tween 20 (polyoxyethelyene sorbitan monolaurate, CAS RN 9005-64-5). The test plants were then grown in a glasshouse under controlled conditions in a glasshouse (at 24/16° C., day/night; 14 hours light; 65% humidity) and watered twice daily. After 13 days for pre and post-emergence, the test was evaluated (100=total damage to plant; 0=no damage to plant).
(§2) Alopecurus myosuroides (ALOMY), Avena fatua (AVEFA), Setaria faberi (SETFA), Echinochloa crus-galli (ECHCG), Solanum nigrum (SOLNI) and Amaranthus retroflexus (AMARE)

[2] = system: Amaranthus retroflexus (AMARE); test: as above; conditions: 312 h, rate 250 g/ha, evaluated after 13 days, read-out: Pre-emergence activity AMARE (100=total damage to plant; 0=no damage to plant)
Protocol: as §1, §2

Avena fatua (AVEFA) [3] = test: as above; conditions: 312 h, rate 250 g/ha, evaluated after 13 days, read-out: Pre-emergence activity AVEFA (100=total damage to plant; 0=no damage to plant)
Protocol: as §1, §2

[4] = system: Echinochloa crus-galli (ECHCG); test: as above; conditions: 312 h, rate 250 g/ha, evaluated after 13 days, read-out: Pre-emergence activity ECHCG (100=total damage to plant; 0=no damage to plant)
Protocol: as §1, §2

Setaria faberi (SETFA) [5] = test: as above; conditions: 312 h, rate 250 g/ha, evaluated after 13 days, read-out: Pre-emergence activity SETFA (100=total damage to plant; 0=no damage to plant)
Protocol: as §1, §2

[6] = system: Alopecurus myosuroides (ALOMY); test: Example B post-emergence herbicidal activity, glasshouse pot test; conditions: 312 h, rate 250 g/ha, evaluated after 13 days, read-out: Post-emergence activity ALOMY (100=total damage to plant; 0=no damage to plant)
Protocol: as §1, §2

[7] = system: Amaranthus retroflexus (AMARE); test: as above; conditions: 312 h, rate 250 g/ha, evaluated after 13 days, read-out: Post-emergence activity AMARE (100=total damage to plant; 0=no damage to plant)
Protocol: as §1, §2

Avena fatua (AVEFA) [8] = test: as above; conditions: 312 h, rate 250 g/ha, evaluated after 13 days, read-out: Post-emergence activity AVEFA (100=total damage to plant; 0=no damage to plant)
Protocol: as §1, §2

[9] = system: Echinochloa crus-galli (ECHCG); test: as above; conditions: 312 h, rate 250 g/ha, evaluated after 13 days, read-out: Post-emergence activity ECHCG (100=total damage to plant; 0=no damage to plant)
Protocol: as §1, §2

Setaria faberi (SETFA) [10] = test: as above; conditions: 312 h, rate 250 g/ha, evaluated after 13 days, read-out: Post-emergence activity SETFA (100=total damage to plant; 0=no damage to plant)
Protocol: as §1, §2

Compound	pest or weed control at 250 g/ha [1] [%]	pest or weed control at 250 g/ha [2] [%]	pest or weed control at 250 g/ha (Avena fatua (AVEFA) [3]) [%]	pest or weed control at 250 g/ha [4] [%]	pest or weed control at 250 g/ha (Setaria faberi (SETFA) [5]) [%]	pest or weed control at 250 g/ha [6] [%]	pest or weed control at 250 g/ha [7] [%]	pest or weed control at 250 g/ha (Avena fatua (AVEFA) [8]) [%]	pest or weed control at 250 g/ha [9] [%]	pest or weed control at 250 g/ha (Setaria faberi (SETFA) [10]) [%]
CCc1ccc(-c2ccc(Cl)cc2)cc1C1=C(O)C(C)(C)OC(C)(C)C1=O [Compound A-4]	70	20	70	100	100	90	20	80	100	100
Cc1ccc(-c2c(Cl)cc(Cl)cc2Cl)cc1C1=C(O)C(C)(C)OC(C)(C)C1=O [Compound A-60]	0	0	0	20	20	20	60	0	80	80
CCc1ccc(-c2ccc(Cl)c(C(F)(F)F)c2F)cc1C1=C(O)C(C)(C)OC(C)(C)C1=O [Compound A-154]	50	0	20	100	90	100	0	70	100	100
CCc1ccc(-c2cc(F)c(Cl)c(F)c2)cc1C1=C(O)C(C)(C)OC(C)(C)C1=O [Compound A-152]	70	0	90	100	100	100	0	100	100	100
CCc1ccc(-c2ccc(Cl)c(F)c2)cc1C1=C(O)[C@]2(C)O[C@@H](CC2COC)C1=O (some centres unmarked) [Compound A-127]	30	0	70	50	90	80	0	40	100	100
CCc1ccc(-c2ccc(Cl)cc2C(F)(F)F)cc1C1=C(O)C(C)(C)OC(C)(C)C1=O [Compound A-72]	0	0	0	40	0	20	60	0	80	80
Cc1ccc(-c2ccc(Cl)cc2Cl)cc1C1=C(O)C(C)(C)[S+]([O-])C(C)(C)C1=O (single isomer, unassigned) [Compound C-7]	0	0	0	0	0	20	0	0	60	30
CC1(C)OC(C)(C)C(O)=C(c2cc(-c3ccc(Cl)cc3)ccc2Cl)C1=O [Compound A-142]	60	0	70	70	100	100	0	80	100	80
